According to patent US20210017231A1, “ATP1A1-TARGETING POLYPEPTIDE AND USE THEREOF” (SUN YAT-SEN UNVIERSITY CANCER CENTER (SYSUCC), priority 2017, published 2021):
Bridge positions count the residues as written; N and C are the ends. Primed or numbered codes have the meaning given here. Ends that are not written are not given here. FITC′ = fluorescein isothiocyanate label; Cy5 = Cy5 dye label

What was measured:
[1] = tested on: breast cancer MDA-MB-231 tumors; assay: Infrared fluorescent molecular imaging of breast cancer tumor-bearing mice; format: in vivo
Source text: Tumor-bearing mice were used for the infrared fluorescence molecular imaging experiment to detect the distribution of Cy5-S3 (Cy5-SEQ ID NO:1) fluorescent peptide in various organs and tumors of the tumor-bearing mice. The experimental procedure of the imaging experiment of small living animals was as follows: 1) taking out nine male NOD SCID mice of 4-week old; 2) digesting breast cancer MDA-MB-231 cells with trypsin, counting, and adjusting the concentration to be 5.0×10^7 cells/ml, resuspending the cells with 20% Matrigel DMEM, and injecting with 200 μl/mouse; 3) observing tumor formation for 1-2 weeks, measuring the sizes of the tumors, and randomizing the mice into three groups according to the sizes of the tumors, i.e. […] 4) dissolving 300 μg fluorescent peptides in 200 μl PBS, injecting the fluorescent peptides into the tail veins of the mice, and dynamically detecting the distribution of the fluorescent peptides in various organs and tumors of the nude mice by using a small living animal imaging instrument. 5) taking out every organ and tumor, homogenizing, measuring the fluorescence intensity of each organ and tumor, and making statistical analysis.

[2] = tested on: esophageal cancer KYSE30 tumor; assay: Infrared fluorescent molecular imaging of esophageal cancer tumor-bearing mice; format: in vivo; settings: 48 hours after tail vein injection, FIGS. 2D, 2E
Source text: (§1) According to the above procedure, the Cy5-S3 (Cy5-SEQ ID NO:1) fluorescent peptides were applied in esophageal cancer KYSE30 tumor-bearing and nasopharyngeal carcinoma CNE2 mouse models, in order to detect whether Cy5-S3 (Cy5-SEQ ID NO:1) fluorescent peptide can be imaged with infrared fluorescent molecular imaging in other tumors.

[3] = tested on: nasopharyngeal carcinoma CNE2 tumor; assay: Infrared fluorescent molecular imaging of nasopharyngeal carcinoma mouse model; format: in vivo, mice; settings: 48 hours after tail vein injection, FIG. 2F
Source text: as §1

[4] = tested on: breast cancer MDA-MB-231 cells; assay: Polypeptide blocking experiment (ELISA on cells); format: cell-based, human; settings: 5, 10, 20 μg/μl S3 polypeptide
Method: An enzyme-linked immunosorbent assay was used to detect the binding of S3 phage to breast cancer MDA-MB-231 cells, and then to detect whether […] could block the binding of […] to breast cancer MDA-MB-231 cells. The specific procedure was as follows:
2) digesting cells with trypsin, counting, and uniformly plating the cells in a 96-well plate, 1×10^4/well;
3) in the blocking experiment, adding 5, 10, 20 μg/μl S3 polypeptide and incubating at 37° C. for 1 h;
4) in the targeting experiment, adding phages in a concentration gradient of 1.0×10^9, 2.0×10^9, 4.0×10^9, 8.0×10^9, […] pfu/well, incubating at 37° C. for 2 h for binding; in the blocking experiment, adding 20 μg/μl of Biotin-S3 polypeptide;
5) discarding the cell incubation solution;
6) fixing the cells with 4% paraformaldehyde for 10 min;
7) washing five times with 0.1% PBST, 270 μl/well;
8) destroying the membranes with 0.1% Triton, and washing once with PBST, 270 μl/well;
9) blocking with 5% BSA for 30 min;
10) adding 1:1000 diluted anti-M13 conjucted HRP by 50 μl/well, and incubating at room temperature for 1 h;
11) washing five times with 0.1% PBST;
12) developing color with a TMB kit; and 13) reading at OD 450 nm by a microplate reader.

[5] = tested on: human breast cancer MDA-MB-231 cells; assay: Confocal laser scanning microscopy (immunofluorescence) of biotin peptide binding to cells; format: cell-based; settings: MDA-MB-231 versus human normal breast MCF-10A cells
Source text: The binding of Biotin-C (Biotin-SEQ ID NO:2) and Biotin-S3 (Biotin-SEQ ID NO:1) polypeptide to human breast cancer MDA-MB-231 cells was detected by confocal laser scanning microscopy. Meanwhile, the inventors compared it with the binding of the above polypeptides to human normal breast MCF-10A cells. The particular experimental procedure was as follows:
1) digesting cells with trypsin and plating the cells in a 24-well plate provided with a slide, 1×10^5/well;
2) adding Biotin-C (Biotin-SEQ ID NO:2), Biotin-S3 (Biotin-SEQ ID NO:1) polypeptide to the cells, 200 μg/well, and incubating at 37° C. for 2 h;
3) discarding the cell incubation solution;
4) fixing the cells with 4% paraformaldehyde for 10 min;
5) washing five times with 0.1% PBST, 500 μl/well, and washing off unbound polypeptides;
6) destroying the membranes with 0.1% Triton, and washing once with PBST, 500 μl/well;
7) blocking with 5% BSA, 30 min;
8) adding anti-Biotin Streptavidin (1:1000) into the wells, and incubating at 4° C. for 12 h;
9) washing three times with 0.1% PBST, 5 min/time;
10) adding anti-Streptavidin conjugated FITC (1:1000) into the wells, and incubating at room temperature for 45 min;
11) washing three times with 0.1% PBST, 5 min/time;
12) staining cell membranes with WGA (1:1000), and incubating at room temperature for 10 min;
13) washing three times with 0.1% PBST, 5 min/time; […]

[6] = tested on: breast cancer MDA-MB-231 cells; assay: Flow cytometry binding of fluorescent peptide to cells; format: cell-based, human; settings: 10 μM, on ice 20 min, FIG. 1C
Method: The binding of FITC-S3 (SEQ ID NO:3) fluorescent peptide to breast cancer MDA-MB-231 cells was detected by flow cytometry. The inventors first synthesized a fluorescent peptide in which the […] and Con peptide were conjugated to a fluorescent dye FITC, and then incubated FITC-S3 (SEQ ID NO:3) fluorescent peptide with the cells, and finally detected the binding thereof by flow cytometry. The particular experimental procedure was as follows:
1) digesting cells with trypsin, counting, and adjusting the concentration thereof to be 1.0×10^6 cells/tube, resuspending the cells with 100 μl serum-free 1640 medium;
2) adding FITC-C or […] in PBS (10 μM), and incubating the cells on ice for binding for 20 min;
3) washing three times with 0.1% PBST, 1 ml/time, and centrifuging at 400 g for 5 min;
4) resuspending the cells with 500 μl PBS; and
5) detecting by flow cytometry.

Cy5-CSISSLTHC (disulfide 1-9 (inferred)) [Cy5-S3, Cy5 fluorescent S3 peptide]
content of fluorescent peptide in unit weight of the tumor versus other organs ([1]; 48 hours after tail vein injection, FIG. 2C): significantly higher than that in other organs
enrichment in tumor by tissue analysis of dissected mice ([1]; mouse, in vivo): significantly enriched in the tumor
enrichment in tumors by infrared imaging of the living mice ([1]; mouse, in vivo): obviously enriched in the tumors
infrared fluorescent molecular imaging of esophageal cancer [2]: can also be used for the infrared fluorescent molecular imaging
infrared fluorescent molecular imaging of nasopharyngeal carcinoma [3]: can also be used for the infrared fluorescent molecular imaging

CSISSLTHC [Peptide S3, ATP1A1-targeting polypeptide, SISSLTH motif with Cys at both terminals]
blocking of the binding of Biotin-S3 polypeptide to breast cancer cells ([4]; 20 μg/μl Biotin-S3, FIG. 1B): can block the binding
concentration dependence of the blocking effect ([4]; FIG. 1B): concentration-dependent
targeting of breast cancer cells compared to normal breast MCF-10A cells [5]: obvious property of targeting breast cancer cells

CSISSLTHC-GGGS-FITC (CSISSLTHCGGGS-{FITC′}; disulfide 1-9 (inferred)) [FITC-S3, S3 peptide conjugated to fluorescent dye FITC]
binding ability to breast cancer MDA-MB-231 cells versus FITC-control fluorescent peptide [6]: stronger than that of FITC-control fluorescent peptide
